Assay results: patent publication US5985926A, “Method for inhibiting intracellular viral replication” (Cell Therapeutics, Inc., priority 1997, dated 1999)

How the values were obtained:
[1] = system: 293-EBNA cells; experiment: Viability of 293-EBNA cells, Alamar Blue; format: cell-based, human
Protocol: (§1) Cell viability was measured by a colorimetric assay that uses Alamar Blue dye (Alamar, Inc.) to report cell proliferation, viability and cytotoxicity. This vital dye indicates cell activity by serving as substrate for mitochrondrial dehydrogenases for the formation of soluble dyes which can be quantitated by determining the difference in absorbance between A570 and A600 using a plate reader.
as §1, with “[…]” for “colorimetric”
This example illustrates that CT2576 suppressed both tat-dependent and TNF-α induced HIV-LTR transcription with an IC50 of approximately 10 μM. Study of the effects of CT2576 on cell toxicity was performed using the Alamar Blue™ dye (Alamar Biosciences) according to the manufacturer's instructions. CT2576 was not toxic to 293-EBNA cells at concentrations up to 35 μM. To show CT2576 can inhibit HIV expression, CT2576 was tested for the ability to block HIV p24 antigen expression in chronically or acutely infected cells. Specifically, CT2576 inhibited the TNF-α and IL-6 induced and the constitutive expression of HIV in the chronically infected U1 cells and in peripheral blood lymphocytes (PBL) freshly infected with a HIV strain from a clinical isolate with an IC50 of approximately 1 μM. Pharmacological inhibition of synthesis of selected PL may therefore be a novel therapeutic approach to suppression of HIV replication.

[2] = system: CMV promoter in 293-EBNA cells; experiment: AP reporter gene expression from CMV promoter, 293-EBNA cells stably transfected with pCMV.AP; format: cell-based, human cytomegalovirus; human cells; conditions: for IC50: Homo sapiens, 293-EBNA stably transfected with pCMV.AP (FIG. 6), read-out: IC50, AP reporter gene expression (pCMV.AP); for inhibition of AP expression (CMV promoter): in words
Protocol: An assay for measuring the anti-viral activity of the compounds involves testing the abilities of the compounds to inhibit gene expression directed by specific viral promoters in cell lines. Specifically, a plasmid construct, pCMV.AP, using the human cytomegalovirus (CMV) enhancer and promoter to direct the expression of the secreted human placental alkaline phosphatase reporter gene were transformed into a tumor cell line (e.g., 293-EBNA cells). The cultured cells were treated with various concentrations of the compounds. The expression of the alkaline phosphatase (AP) reporter gene in the individual cultures can then be measured by following the change in absorbance at A405 of the cell conditioned media in the presence of a suitable substrate (e.g., ortho-nitrophenol phosphate) (Berger et al., Gene 66:1,1988).
The construction of expression vectors for secreted placental alkaline phosphatase (sPAP) was performed by obtaining a mammalian episomal expression vector pBL3, derived from the plasmids pMEP4 and pCEP4 (Invitrogen Corp). Specifically, a 600 bp Spe I--Kpn I fragment spanning the CMV promoter from pCEP4 and a 9500 bp Xba I--Kpn I vector fragment from pMEP4 were isolated and ligated together to form pBL3. Full length sPAP cDNA was amplified by PCR using the plasmid pGEM4Z/SEAP (ATCC) as template with primers 5'-[…]-3' (SEQ ID NO. 1) and 5'-[…]-3' (SEQ ID NO. 2). The PCR product was then digested with Xba I and Sal I and inserted between the Nhe I site and the Xho I site within the multiple cloning region of pBL3. The resulting plasmid was designated as PCMV.AP.

[3] = system: HIV-LTR promoter (tat transactivation) in 293-EBNA cells; experiment: AP reporter gene expression from HIV-LTR promoter with tat expression vector, 293-EBNA cells; format: cell-based, HIV; human cells; conditions: 293-EBNA cells, HIV promoter, in words
Excerpt: The plasmid construct, pHIV.AP, using the human immunodeficiency virus (HIV) long terminal repeat (LTR) promoter (derived from pU3R-III CAT, Sodroski et al., Science 227:171, 1985) to direct the expression of the sPAP reporter gene, was made by replacing the CMV promoter region from pCMV.AP with the HIV-LTR promoter. PHIV.AP was co-transfected with pSV2tat72, an expression vector for the 72 amino acids tat protein from HIV (Frankel and Pabo, Cell 55:1189-1193, 1988), into 293-EBNA cells (Invitrogen). The cultured cells were treated with various concentrations of the compounds. The expression of the alkaline phosphatase (AP) reporter gene in the individual cultures was measured by following change in absorbance at 405 nm of the cell conditioned media in the presence of a suitable substrate (e.g., ortho-nitrophenol phosphate) (Berger et al., Gene 66:1-10, 1988).
We set up a cell-based system with a cell line cotransfected with an expression plasmid using HIV-1-LTR promoter to direct synthesis of AP reporter gene and an expression plasmid to direct synthesis of the first 72 amino acids of tat protein. Plasmid pREP7 (Invitrogen) was converted to pREP7b by deleting 2,040 bp EBNA-1 coding region and by replacing the pBR322 origin of replication (ori) with the pBluescript KS (Stratagene) ori region. The cDNA for secreted placental alkaline phosphatase (AP) was generated by PCR with the primers (5'-[…]-3')(SEQ ID NO. 3) and (5'-[…]-3') (SEQ ID NO. 4)using the plasmid pGEM-4Z/PLAP489 (American Type Culture Collection) as the template. The 2,000 bp Xba I-Sal I fragment obtained was ligated into a Nhe I/Xho I vector derived from pREP7b to generate the plasmid pREP7b.AP. The 44 bp Xba I-Bgl II fragment from plasmid pMEP4 (Invitrogen)and the 36 bp BamH I-Kpn I fragment from pREP7 were ligated into the Xba I-Kpn I vector fragment from pREP7b.AP to generate the plasmid pMCS.AP. The 720 bp Xho I-Hind III fragment encoding the HIV-LTR promoter from the plasmid pU3R-III-CAT (Sodroski et al., Science 227:171-173, 1985) was ligated into the Xho I-Hind III vector fragment of PMCS.AP to generate the plasmid pHIV.AP. The CMV promoter was derived from the 600 bp Spe I-Asp718 I fragment from pCEP4 (Invitrogen). The 360 bp SV40 early promoter fragments were produced from pSV2tat72 (Frankel et al., Cell 55:1189-1193,1988) by PCR using the primers (5'-[…]-3') (SEQ ID NO. 5) and (5'-[…]-3') (SEQ ID NO. 6). The 480 bp phosphoglycerate kinase (PGK) promoter fragment was amplified from human placental genomic DNA (Promega, Madison, Wis.) based on published sequence (Pfeifer et al., Science 246:810-813, 1990) using the primers (5'-[…]-3') (SEQ ID NO. 7) and (5'-[…]-3') (SEQ ID NO. 8). The above fragments were ligated into the Xba I-Asp718 I vector fragment of pHIV.AP to generate pHIV2.AP, pHIV3.AP, pCMV.AP, pSVE.AP and PPGK.AP respectively. The tat-expression plasmid directed by HIV-LTR promoter, pHIV.tat, was generated by inserting the 400 bp EcoRV-HindIII fragment from pHIV.AP into the PvuII-HindIII vector fragment from pSV2tat72 (Frankel et al., Cell 55:1189-1193, 1988).
Transient transfections with various expression plasmids were performed on a human kidney embryonic cell line 293-EBNA (Invitrogen) using the cationic lipid DOTAP (Boehringer Mannheim). The cell culture media were changed 24 hr after transfection into a serum-free medium AIM V (Life Technologies) before addition of compounds or TNF-α (PeproTech) at the appropriate concentrations. AP activity measured by a colorimetric assay (Berger et al., Gene 66:1-10, 1988) was performed 19-24 hr later.

[4] = system: 293-EBNA cells
[5] = system: PA (phosphatidic acid) formation in tat-transfected and tar-transfected cells; experiment: PA mass / myrPA formation in serum-stimulated EB293, 293tat and 293tar cells; format: cell-based, human
Protocol: Transformed and serum-stimulated cells were measured for total PA mass according to the methods described herein. […] The columns in FIG. 18 represent: (1) EB293 cells plus serum, (2) EB293 cells plus serum plus CT3556 (10 μM.), (3) 293tat cells plus serum, (4) 293tat cells plus serum plus CT3556 (10 μM.), (5) 293tar cells plus serum, and (6) 293tar cells plus serum plus CT3556 (10 μM.).
This procedure begins with those cells that would be normally infected with a virus, such as a retrovirus. However, it is not necessary to utilize a cell line containing a retroviral genome, such as U1 cells. In view of the necessity to utilize containment facilities when using an infected cell line, it is preferable to utilize a macrophage cell line that is not infected. Examples of appropriate macrophage cell lines include, U937, THP1, U1, and P288s (available from standard sources, such as ATCC). The cells are stimulated with a stimulant with or without a candidate drug. Examples of stimulants include 3-5% serum, such as fetal calf serum, or tumor necrosis factor (TNF) (e.g., 20 ng/ml) both of which are standard laboratory reagents. After a time course (within 5 minutes, preferably within 1 minute), the cells are immersed in ice cold methanol to stop any cellular signaling reactions.
One must first quantitatively and qualitatively separate PAs from the other lipids found in serum by a chemical extraction of lipids and high performance liquid chromatography (HPLC) to separate and detect PAs. Chemical extraction can be accomplished, for example, by the method of Bligh et al. (Canadian J. Biochem. Physiol. 37:911-917, 1959) or that of Folch et al. (J. Biol. Chem. 226:497-509, 1957). Briefly, the method of Bligh et al. involves an organic extraction of lipids from biological tissue homogenates or fluids. One volume of sample and three volumes of methanol:chloroform (2:1) are vigorously shaken for 2 min. One volume of chloroform is added and then shaken vigorously for 30 sec. One volume of water is added and then shaken vigorously for 30 sec. The mixture is filtered and the upper aqueous layer is discarded. The lower organic layer contains a mixture of lipid classes. The method of Folch et al. involves the extraction of lipids from biological tissue homogenates or body fluids. One volume of sample plus 20 volumes of chloroform:methanol (2:1) are vigorously shaken for 2 min. The mixture is filtered and an amount of 0.1 N KCl equal to 20% of the extraction mixture volume is added and the mixture is shaken vigorously for 2 min. The aqueous and organic phases are allowed to separate. The upper aqueous layer is discarded. The lower organic layer contains a mixture of lipid classes. Free fatty acids and neutral lipids can be separated from phospholipids by normal phase high performance liquid chromatography (HPLC) by modifying the method of Van Kessel et al. (Biochim et Biophys Acta 486:524-530, 1977). This method involves separation of lipids into their major classes by normal phase (silica) high performance liquid chromatography (HPLC). A 5 micron, 25 cm×0.45 cm silica HPLC column is connected to a binary solvent delivery system followed with a UV detector. The lipid sample is injected on the column and a solvent gradient is run at 1.0 ml/min. […]
Transformed and serum-stimulated cells were measured for total PA mass according to the methods described herein. […]

CCCCCCCCCCNCC(O)CCCCCCCn1c(=O)c2c(ncn2C)n(C)c1=O (stereo not drawn) [CT2571, 1-(9-decylamino-8-hydroxynonyl)-3,7-dimethylxanthine]
cytotoxic effect on 293-EBNA cells (Alamar Blue) [1]: cytotoxic | IC50 [2]: 8 µM

CCCCCCNCCCC(O)CCCCCCCn1c(=O)c2c(ncn2C)n(C)c1=O (stereo not drawn) [CT2575, 1-(11-hexylamino-8-hydroxyundecyl)-3,7-dimethylxanthine]
inhibition of AP expression (HIV-LTR promoter) [3]: inhibit HIV promoter driven expression | cytotoxic effect on 293-EBNA cells (Alamar Blue) [1]: no significant cytotoxic effect | IC50 [2]: 3 µM | inhibition of AP expression (CMV promoter) [2]: inhibit CMV promoter driven expression | effect on cell viability / cytotoxicity [4]: minimal cytotoxic effects

Cn1cnc2c1c(=O)n(CCCCCCCCCC(O)CNc1ccccc1)c(=O)n2C (stereo not drawn) [CT3528, N-(11-phenylamino-10-hydroxundecyl)-3,7-dimethylxanthine]
cytotoxic effect on 293-EBNA cells (Alamar Blue) [1]: no significant cytotoxic effect | inhibition of AP expression (CMV promoter) [2]: No appreciable inhibition of AP expression

CCCCCCCCNCCCCCCCCCCCn1c(=O)c2c(ncn2C)n(C)c1=O [CT3556, 1-(11-N-octylaminoundecyl)-3,7-dimethylxanthine]
inhibition of myrPA formation in stimulated cells ([5]; 10 μM, tat-transfected cells stimulated with serum): inhibited myrPA formation in stimulated cells | PA mass, 293tar cells plus serum ([5]; CT3556 10 μM (FIG. 18)): significant drop in PA mass | PA mass, 293tat cells plus serum ([5]; CT3556 10 μM (FIG. 18)): increase in PA was blocked
